This passage reports melting point results from patent publication US20030078251A1, “Benzoxazepinones and their use as squalene synthase inhibitors” (priority 2000, published 2003).

Molecules are shown by their SMILES.

For orientation: melting point means the temperature of the solid-liquid transition.

Turning to `CCCCS(=O)(=O)NC(=O)C[C@H]1O[C@H](c2cccc(OC)c2OC)c2cc(Cl)ccc2N(CC(C)(C)CO)C1=O` [Example 4, (3R,5S)-N-butanesulfonyl-7-chloro-5-(2,3-dimethoxyphenyl)-1-(3-hydroxy-2,2-dimethylpropyl)-2-oxo-1,2,3,5-tetrahydro-4,1-benzoxazepine-3-acetamide], the melting point was 123 to 125 °C.
The value for `COc1cccc([C@H]2O[C@H](CC(=O)NS(=O)(=O)CCCO)C(=O)N(CC(C)(C)CO)c3ccc(Cl)cc32)c1OC` [Example 6, (3R,5S)-N-(3-hydroxypropyl)sulfonyl-7-chloro-5-(2,3-dimethoxyphenyl)-1-(3-hydroxy-2,2-dimethylpropyl)-2-oxo-1,2,3,5-tetrahydro-4,1-benzoxazepine-3-acetamide] was 133 to 135 °C; that for `COc1cccc([C@H]2O[C@H](CC(=O)N[C@H](CCSC)C(=O)O)C(=O)N(CC(C)(C)CO)c3ccc(Cl)cc32)c1OC` [Example 16, N-[[(3R,5S)-7-chloro-5-(2,3-dimethoxyphenyl)-1-(3-hydroxy-2,2-dimethylpropyl)-2-oxo-1,2,3,5-tetrahydro-4,1-benzoxazepin-3-yl]acetyl]-D-methionine] was 142 to 143 °C.
For `COc1cccc([C@H]2O[C@H](CC(=O)NCCc3oc(C(=O)O)cc3C(=O)O)C(=O)N(CC(C)(C)CO)c3ccc(Cl)cc32)c1OC` [Example 28, 5-[2-[[[(3R,5S)-7-chloro-5-(2,3-dimethoxyphenyl)-1(2,2-dimethyl-3-hydroxypropyl)-2-oxo-1,2,3,5-tetrahydro-4,1-benzoxazepin-3-yl]acetyl]amino]ethyl]furan-2,4-dicarboxylic acid] the value was 155 to 157 °C; for `COc1cccc([C@H]2O[C@H](CC(=O)NCc3ccc(C(=O)O)o3)C(=O)N(CC(C)(C)CO)c3ccc(Cl)cc32)c1OC` [Example 29, 5-[[[[(3R,5S)-7-chloro-5-(2,3-dimethoxyphenyl)-1-(2,2-dimethyl-3-hydroxypropyl)-2-oxo-1,2,3,5-tetrahydro-4,1-benzoxazepin-3-yl]acetyl]amino]methyl]furan-2-carboxylic acid], 128 to 131 °C; for `COc1cccc([C@H]2O[C@H](CC(=O)Nc3ccc(CC(=O)O)cc3)C(=O)N(CC(C)(C)CO)c3ccc(Cl)cc32)c1OC` [Example 31, 4-[[(3R,5S)-7-chloro-5-(2,3-dimethoxyphenyl)-1-(3-hydroxy-2,2-dimethylpropyl)-2-oxo-1,2,3,5-tetrahydro-4,1-benzoxazepin-3-yl]acetyl]aminophenylacetic acid], 142 to 144 °C.
`COc1cccc([C@H]2O[C@H](CC(=O)Nc3cccc(C(=O)O)c3C)C(=O)N(CC(C)(C)CO)c3ccc(Cl)cc32)c1OC` [Example 43, 3-[[[(3R,5S)-7-chloro-5-(2,3-dimethoxyphenyl)-1-(3-hydoroxy-2-dimethylpropyl)-2-oxo-1,2,3,5-tetrahydro-4,1-benzoxazepin-3-yl]acetyl]amino]-2-methylbenzoic acid]: the melting point lay in the range of 165 to 168 °C.
For `COc1cccc([C@H]2O[C@H](CC(=O)Nc3cccc(C(=O)O)c3C)C(=O)N(CC(C)(C)COC(C)=O)c3ccc(Cl)cc32)c1OC` [Example 44, 3-[[[(3R,5S)-1-(3-acetoxy-2,2-dimethylpropyl)-7-chloro-5-(2,3-dimethoxyphenyl)-2-oxo-1,2,3,5-tetrahydro-4,1-benzoxazepin-3-yl]acetyl]amino]-2-metylbenzoic acid] the value was 139 to 142 °C; for `COc1cccc([C@H]2O[C@H](CC(=O)Nc3ccc(C(=O)O)cc3C)C(=O)N(CC(C)(C)CO)c3ccc(Cl)cc32)c1OC` [Example 48, 4-[[(3R,5S)-7-chloro-5-(2,3-dimethoxyphenyl)-1-(3-hydroxy-2,2-dimethylpropyl)-2-oxo-1,2,3,5-tetrahydro-4,1-benzoxazepin-3-yl]acetyl]amino-3-methylbenzoic acid], 275 to 276 °C; for `CCOc1ccc(CCC(=O)O)cc1NC(=O)C[C@H]1O[C@H](c2cccc(OC)c2OC)c2cc(Cl)ccc2N(CC(C)(C)CO)C1=O` [Example 49, 3-[3-[[[(3R,5S)-7-chloro-5-(2,3-dimethoxyphenyl)-1-(3-hydroxy-2,2-dimethylpropyl)-2-oxo-1,2,3,5-tetrahydro-4,1-benzoxazepin-3-yl]acetyl]amino]-4-ethoxyphenyl]propionic Acid], 151 to 153 °C.
Compound `CCOc1ccc(CCC(=O)O)cc1NC(=O)C[C@H]1O[C@H](c2cccc(OC)c2OC)c2cc(Cl)ccc2N(CC(C)(C)COC(C)=O)C1=O` [Example 50, 3-[3-[[[(3R,5S)-1-(3-acetoxy-2,2-dimethylpropyl)-7-chloro-5-(2,3-dimethoxyphenyl)-2-oxo-1,2,3,5-tetrahydro-4,1-benzoxazepin-3-yl]acetyl]amino]-4-ethoxyphenyl]propionic Acid] registered a melting point of 175 to 176 °C.
For `COc1cccc([C@H]2O[C@H](CC(=O)Nc3cc(CCC(=O)O)ccc3OC(C)C)C(=O)N(CC(C)(C)CO)c3ccc(Cl)cc32)c1OC` [Example 51, 3-[3-[[[(3R,5S)-7-chloro-5-(2,3-dimethoxyphenyl)-1-(3-hydroxy-2,2-dimethylpropyl)-2-oxo-1,2,3,5-tetrahydro-4,1-benzoxazepin-3-yl]acetyl]amino]-4-isopropoxyphenyl]propionic Acid] the value was 133 to 136 °C; for `COc1cccc([C@H]2O[C@H](CC(=O)Nc3cc(CCC(=O)O)ccc3OC(C)C)C(=O)N(CC(C)(C)COC(C)=O)c3ccc(Cl)cc32)c1OC` [Example 52, 3-[3-[[[(3R,5S)-1-(3-acetoxy-2,2-dimethylpropyl)-7-chloro-5-(2,3-dimethoxyphenyl)-2-oxo-1,2,3,5-tetrahydro-4,1-benzoxazepin-3-yl]acetyl]amino]-4-isopropoxyphenyl]propionic Acid], 101 to 103 °C; for `COc1cc(CCC(=O)O)cc(NC(=O)C[C@H]2O[C@H](c3cccc(OC)c3OC)c3cc(Cl)ccc3N(CC(C)(C)CO)C2=O)c1OC` [Example 66, 3-[5-[[[(3R,5S)-7-chloro-5-(2,3-dimethoxyphenyl)-1-(3-hydroxy-2,2-dimethylpropyl)-2-oxo-1,2,3,5-tetrahydro-4,1-benzoxazepin-3-yl]acetyl]amino]-3,4-dimethoxyphenyl]propionic Acid], 145 to 148 °C.
Compound `COc1cccc([C@H]2O[C@H](CC(=O)Nc3ccc(CCCC(=O)O)cc3)C(=O)N(CC(C)(C)CO)c3ccc(Cl)cc32)c1OC` [Example 68, 4-[4-[[[(3R,5S)-7-chloro-5-(2,3-dimethoxyphenyl)-1-(3-hydroxy-2,2-dimethylpropyl)-2-oxo-1,2,3,5-tetrahydro-4,1-benzoxazepin-3-yl]acetyl]amino]phenyl]butanoic acid] had a melting point of 194 to 195 °C.
As to `COc1cccc([C@H]2O[C@H](CC(=O)NCCCC(=O)O)C(=O)N(CC(C)(C)C)c3ccc(Cl)cc32)c1OC` [Example 70, 4-[[(3R,5S)-7-chloro-5-(2,3-dimethoxyphenyl)-1-neopentyl-2-oxo-1,2,3,5-tetrahydro-4,1-benzoxazepin-3-yl]acetyl]aminobutanoic acid], the melting point fell in the range of 128 to 130 °C.
Compound `COc1cccc([C@H]2O[C@H](CC(=O)NCc3ccc(C(=O)O)cc3)C(=O)N(CC(C)(C)CO)c3ccc(Cl)cc32)c1OC` [Example 75, 4-[[(3R,5S)-7-Chloro-5-(2,3-dimethoxyphenyl)-1-(3-hydroxy-2,2-dimethylpropyl)-2-oxo-1,2,3,5-tetrahydro-4,1-benzoxazepin-3-yl]acetyl]aminomethylbenzoic acid] gave a melting point of 143 to 144 °C.
Take `COc1cccc([C@H]2O[C@H](CC(=O)NCCc3ccc(OC(C)(C)C(=O)O)cc3)C(=O)N(CC(C)(C)CO)c3ccc(Cl)cc32)c1OC` [Example 77, α-[4-[2-[[(3R,5S)-7-Chloro-5-(2,3-dimethoxyphenyl)-1-(3-hydroxy-2,2-dimethylpropyl)-2-oxo-1,2,3,5-tetrahydro-4,1-benzoxazepin-3-yl]acetyl]aminoethyl]phenyloxy]isobutanoic acid]: the melting point was 209 to 211 °C.
Regarding `COc1cccc([C@H]2O[C@H](CC(=O)Nc3ccc4oc(C(=O)O)cc4c3)C(=O)N(CC(C)(C)CO)c3ccc(Cl)cc32)c1OC` [Example 81, 5-[[[(3R,5S)-7-Chloro-5-(2,3-dimethoxyphenyl)-1-(3-hydroxy-2,2-dimethylpropyl)-2-oxo-1,2,3,5-tetrahydro-4,1-benzoxazepin-3-yl]acetyl]amino]benzofuran-2-carboxylic acid], the melting point was in the range of 171 to 172 °C.
`COc1cccc([C@H]2O[C@H](CC(=O)Nc3ccc(C(=O)O)o3)C(=O)N(CC(C)(C)CO)c3ccc(Cl)cc32)c1OC` [Example 94, 5-[[(3R,5S)-7-Chloro-5-(2,3-dimethoxyphenyl)-1-(3-hydroxy-2,2-dimethylpropyl)-2-oxo-1,2,3,5-tetrahydro-4,1-benzoxazepin-3-yl]acetyl]amino-2-furancarboxylic acid] had a melting point of 155 to 158 °C.
The value for `COc1cccc([C@H]2O[C@H](CC(=O)NCCCOc3ccc(CC(=O)O)cc3)C(=O)N(CC(C)(C)CO)c3ccc(Cl)cc32)c1OC` [Example 96, 4-[3-[[(3R,5S)-7-Chloro-5-(2,3-dimethoxyphenyl)-1-(3-hydroxy-2,2-dimethylpropyl)-2-oxo-1,2,3,5-tetrahydro-4,1-benzoxazepin-3-yl]acetyl]aminopropyloxy]phenylacetic acid] was 125 to 128 °C; that for `COc1cccc([C@H]2O[C@H](CC(=O)NCCCOc3ccc(CC(=O)O)cc3)C(=O)N(CC(C)(C)COC(C)=O)c3ccc(Cl)cc32)c1OC` [Example 97, 4-[3-[[(3R,5S)-1-(3-Acetoxy-2,2-dimethylpropyl)-7-chloro-5-(2,3-dimethoxyphenyl)-2-oxo-1,2,3,5-tetrahydro-4,1-benzoxazepin-3-yl]acetyl]aminopropyloxy]phenylacetic acid] was 163 to 164 °C; that for `COc1cccc([C@H]2O[C@H](CC(=O)NCCCOc3ccc(C(=O)O)cc3)C(=O)N(CC(C)(C)CO)c3ccc(Cl)cc32)c1OC` [Example 98] was 138 to 139 °C.
